Assay results taken from patent publication US12110288B2, “MASP-2 inhibitors and methods of use” (Omeros Corporation, priority 2019, dated 2024).

Target: T1, MASP-2 (CCP1-CCP2-SP) (Homo sapiens, UniProt O00187)
T1 construct: 15 μL of Enzyme MASP-2 (CCP1-CCP2-SP) in Assay Buffer
Assay: Enzymatic Assay for MASP-2
Assay type: biochemical
Settings: fluorogenic substrate based on C2 cleavage site, room temperature, 20 mM HEPES pH 7.4
Summary of the method: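 Fluorogenic substrate modelled on the C2 cleavage site, run at room temperature in 20 mM HEPES pH 7.4, 140 mM NaCl, 0.1% Tween 20; compounds were added from DMSO serial dilutions before enzyme and substrate. Reactions ran 20 min and were stopped with 0.1 M acetic acid before fluorescence was read. % activity was normalised to DMSO-only and no-enzyme controls; IC50 was taken as Ki, with tight- or slow-binding inhibitors handled separately.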

T1 sequence (O00187 445-686 limits assumed): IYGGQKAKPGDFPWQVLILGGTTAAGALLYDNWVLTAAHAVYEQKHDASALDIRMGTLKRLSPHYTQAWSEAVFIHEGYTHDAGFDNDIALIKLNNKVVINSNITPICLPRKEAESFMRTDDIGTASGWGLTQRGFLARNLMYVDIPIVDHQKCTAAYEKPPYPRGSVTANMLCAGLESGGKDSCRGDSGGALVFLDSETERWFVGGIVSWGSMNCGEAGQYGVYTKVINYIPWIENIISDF
T1 sequence (O00187 298-444 partner limits assumed): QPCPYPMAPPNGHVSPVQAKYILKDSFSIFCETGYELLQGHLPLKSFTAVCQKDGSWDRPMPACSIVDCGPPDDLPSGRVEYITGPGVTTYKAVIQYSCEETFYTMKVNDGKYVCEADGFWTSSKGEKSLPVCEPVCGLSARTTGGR

Work on `Cc1cccc(CNc2ncc(-c3ccccc3)n(CC(=O)NCc3cc4cnccc4[nH]3)c2=O)c1` [Compound 155, N-((1H-Pyrrolo[3,2-c]pyridin-2-yl)methyl)-2-(3-((3-methylbenzyl)amino)-2-oxo-6-phenylpyrazin-1(2H)-yl)acetamide] yielded a Ki of less than 500 nM.
